Laboratory results from patent US8759343B2 (priority 2007, dated 2014).

melting point [°C]	SMILES
152 to 154	c1ccc2oc(-c3ccc(C45CCCN(CCC4)C5)cn3)cc2c1
163 to 165	c1ccc2cc(-c3ccc(C45CCCN(CCC4)C5)cn3)ccc2c1
116 to 117	Fc1ncccc1-c1ccc(C23CCN(CC2)C3)cn1
121 to 122	Fc1ccc(-c2ccc(C34CCCN(CCC3)C4)cn2)cn1
147 to 149	c1cc(-c2ccc(C34CCCN(CCC3)C4)cn2)c2cccnc2c1
144	Fc1cc(-c2ccc(C34CCCN(CCC3)C4)cn2)ccc1-c1ccccc1
95 to 98	CC(=O)c1cccc(-c2ccc(C34CCN(CC3)C4)cn2)c1
134 to 136	Cc1ccc(-c2ccc(C34CCN(CC3)C4)cn2)cc1
153 to 155	Fc1cc(-c2ccc(C34CCN(CC3)C4)cn2)ccc1-c1ccccc1
254 to 256	c1cc(-c2ccc(C34CCN(CC3)C4)cn2)ccn1
129 to 131	c1cc(-c2ccc(C34CCN(CC3)C4)cn2)c2cccnc2c1
87 to 89	COc1cccc(-c2ccc(C34CCN(CC3)C4)cn2)c1
85 to 87	Fc1ccc(-c2ccc(C34CCN(CC3)C4)cn2)cc1F
202 to 203	c1ccc2sc(-c3ccc(C45CCN(CC4)C5)cn3)cc2c1
102 to 104	Fc1cccc(-c2ccc(C34CCCN(CCC3)C4)cn2)c1
279 to 281	c1cc(-c2ccc(C34CCN(CC3)C4)cn2)co1
158 to 160	c1ccc2c(c1)oc1c(-c3ccc(C45CCN(CC4)C5)cn3)cccc12
267 to 268	c1ccc2ncc(-c3ccc(C45CCN(CC4)C5)cn3)cc2c1
228 to 229	c1cncc(-c2ccc(C34CCN(CC3)C4)cn2)c1
75 to 76	FC(F)(F)Oc1ccc(-c2ccc(C34CCN(CC3)C4)cn2)cc1
176 to 178	c1ccc2sc(-c3ccc(C45CCCN(CCC4)C5)cn3)cc2c1
169 to 170	COc1cc(F)ccc1-c1ccc(C23CCN(CC2)C3)cn1
142 to 144	c1ccc2c(c1)oc1c(-c3ccc(C45CCCN(CCC4)C5)cn3)cccc12
124 to 126	c1cc2c(cc1-c1ccc(C34CCCN(CCC3)C4)cn1)OCO2
151 to 153	c1cnc2ccc(-c3ccc(C45CCCN(CCC4)C5)cn3)cc2c1

melting point [°C]	SMILES
166 to 168	Cn1ccc2cc(-c3ccc(C45CCCN(CCC4)C5)cn3)ccc21
152 to 154	c1cc(-c2ccc(C34CCCN(CCC3)C4)cn2)c[nH]1
107 to 109	Fc1ccc(-c2ccc(C34CCCN(CCC3)C4)cn2)cc1
244 to 246	c1ncc(-c2ccc(C34CCN(CC3)C4)cn2)cn1
104 to 106	COc1ncc(-c2ccc(C34CCN(CC3)C4)cn2)c(OC)n1
146 to 148	c1ccc(-c2ccc(-c3ccc(C45CCCN(CCC4)C5)cn3)cc2)cc1
335 to 337	c1cc(-c2ccc(C34CCCN(CCC3)C4)cn2)co1
118 to 120	c1cncc(-c2ccc(C34CCCN(CCC3)C4)cn2)c1
120 to 122	FC(F)(F)Oc1ccc(-c2ccc(C34CCCN(CCC3)C4)cn2)cc1
148 to 150	COc1cc(F)ccc1-c1ccc(C23CCCN(CCC2)C3)cn1
160 to 162	c1ccc2ncc(-c3ccc(C45CCCN(CCC4)C5)cn3)cc2c1
191 to 192	c1ccc(-c2ccc(-c3ccc(C45CCN(CC4)C5)cn3)cc2)cc1
176 to 178	c1cnc2c(-c3ccc(C45CCN(CC4)C5)cn3)cccc2c1
138 to 139	COc1ccc(-c2ccc(C34CCCN(CCC3)C4)cn2)cc1
139 to 140	c1cc2nonc2cc1-c1ccc(C23CCN(CC2)C3)cn1
226 to 227	c1nc(N2CCOCC2)ncc1-c1ccc(C23CCN(CC2)C3)cn1
95 to 97	COc1cc(F)cc(-c2ccc(C34CCN(CC3)C4)cn2)c1
144 to 146	COc1cccc(-c2ccc(C34CCN(CC3)C4)cn2)c1F
138 to 140	COc1ccc(-c2ccc(C34CCCN(CCC3)C4)cn2)cc1F
144 to 146	COc1cccc(-c2ccc(C34CCCN(CCC3)C4)cn2)c1F
105 to 107	Cn1cccc1-c1ccc(C23CCCN(CCC2)C3)cn1
135 to 137	c1cc(-c2ccc(C34CCCN(CCC3)C4)cn2)cc(-n2cccn2)c1
127 to 129	c1csc(-c2ccc(C34CCN(CC3)C4)cn2)n1
139 to 141	c1ncc(-c2ccc(C34CCCN(CCC3)C4)cn2)cn1
167 to 169	c1ccc2c(-c3ccc(C45CCCN(CCC4)C5)cn3)cccc2c1

melting point [°C]	SMILES
189 to 191	c1nc(N2CCOCC2)ncc1-c1ccc(C23CCCN(CCC2)C3)cn1
81 to 83	COc1ncc(-c2ccc(C34CCCN(CCC3)C4)cn2)c(OC)n1
151 to 153	c1cc2nonc2cc1-c1ccc(C23CCCN(CCC2)C3)cn1
103 to 105	c1ccc(-c2ccc(C34CCCN(CCC3)C4)cn2)cc1
101 to 103	COc1ccc(OC)c(-c2ccc(C34CCCN(CCC3)C4)cn2)c1
135 to 137	FC(F)(F)c1ccc(-c2ccc(C34CCCN(CCC3)C4)cn2)cc1
134 to 136	COc1ccncc1-c1ccc(C23CCCN(CCC2)C3)cn1
124 to 126	c1csc(-c2ccc(C34CCCN(CCC3)C4)cn2)n1
129 to 131	c1ccc(Oc2ccc(-c3ccc(C45CCCN(CCC4)C5)cn3)cc2)cc1
117 to 119	Fc1ccccc1-c1ccc(C23CCCN(CCC2)C3)cn1
301 to 303	c1cc(N2CCCC2)ncc1-c1ccc(C23CCCN(CCC2)C3)cn1
202 to 204	CC(C)(C)OC(=O)N1CCN(c2ccc(-c3ccc(C45CCCN(CCC4)C5)cn3)cn2)CC1
143 to 145	c1ccc2c(-c3ccc(C45CCN(CC4)C5)cn3)cncc2c1
176 to 178	c1cc(-c2ccc(C34CCN(CC3)C4)cn2)c2ccncc2c1
126 to 128	c1ccc(-c2ccc(C34CCN(CC3)C4)cn2)cc1
117 to 119	FC(F)(F)c1cc(-c2ccc(C34CCN(CC3)C4)cn2)cc(C(F)(F)F)c1
97 to 99	COc1ccncc1-c1ccc(C23CCN(CC2)C3)cn1
216 to 218	CC(C)(C)OC(=O)N1CCN(c2ccc(-c3ccc(C45CCN(CC4)C5)cn3)cn2)CC1
164 to 165	c1ccc2oc(-c3ccc(C45CCN(CC4)C5)cn3)cc2c1
108 to 109	Fc1ccc(-c2ccc(C34CCN(CC3)C4)cn2)cn1
98 to 99	Fc1ncccc1-c1ccc(C23CCCN(CCC2)C3)cn1
110 to 112	Fc1ccccc1-c1ccc(C23CCN(CC2)C3)cn1
160 to 162	COc1ccc(-c2ccc(C34CCN(CC3)C4)cn2)cc1
154 to 156	c1ccc2cc(-c3ccc(C45CCN(CC4)C5)cn3)ccc2c1
141 to 143	c1ccc(Oc2ccc(-c3ccc(C45CCN(CC4)C5)cn3)cc2)cc1
